US12415793B2, “Modulators of TMEM16A for treating respiratory disease” (TMEM16A Limited, priority 2020, dated 2025)

Target: T1, human TMEM16A (TMEM16Aabc variant) (Homo sapiens, UniProt Q5XXA6, DEL476-501)
T1 sequence (Q5XXA6 with tags, fused parts or gaps isoform Q5XXA6-5 DEL539-564): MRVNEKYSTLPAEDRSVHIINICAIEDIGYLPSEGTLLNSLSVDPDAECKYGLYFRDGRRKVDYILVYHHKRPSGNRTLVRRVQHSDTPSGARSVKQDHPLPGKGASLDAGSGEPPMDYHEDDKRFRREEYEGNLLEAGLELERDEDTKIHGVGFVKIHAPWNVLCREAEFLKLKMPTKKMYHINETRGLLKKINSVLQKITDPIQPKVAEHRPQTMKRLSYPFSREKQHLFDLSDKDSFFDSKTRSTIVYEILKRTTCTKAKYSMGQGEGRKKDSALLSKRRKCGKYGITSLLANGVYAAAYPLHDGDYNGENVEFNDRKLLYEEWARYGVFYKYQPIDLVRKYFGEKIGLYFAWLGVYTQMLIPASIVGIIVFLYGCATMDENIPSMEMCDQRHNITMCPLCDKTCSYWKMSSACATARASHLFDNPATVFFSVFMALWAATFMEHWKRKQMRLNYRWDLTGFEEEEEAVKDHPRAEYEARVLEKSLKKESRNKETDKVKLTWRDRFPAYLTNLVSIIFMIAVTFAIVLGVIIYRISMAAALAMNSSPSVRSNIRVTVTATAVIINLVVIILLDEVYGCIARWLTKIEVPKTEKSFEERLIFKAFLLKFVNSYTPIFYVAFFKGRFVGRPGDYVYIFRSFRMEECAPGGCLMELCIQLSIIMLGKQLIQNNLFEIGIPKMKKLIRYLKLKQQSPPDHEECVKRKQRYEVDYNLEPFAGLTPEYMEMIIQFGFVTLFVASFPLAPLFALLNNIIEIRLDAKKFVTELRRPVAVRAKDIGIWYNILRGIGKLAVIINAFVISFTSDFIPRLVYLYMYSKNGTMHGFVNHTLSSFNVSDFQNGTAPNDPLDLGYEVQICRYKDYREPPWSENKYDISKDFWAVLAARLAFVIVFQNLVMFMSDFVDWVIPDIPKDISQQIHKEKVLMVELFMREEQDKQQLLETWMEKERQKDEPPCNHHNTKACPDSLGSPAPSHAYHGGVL
Test: Automated whole-cell patch clamp (Qpatch) assay to detect TMEM16A activity in recombinant cells
Type: cell-based
Details: for activation at 3.33 µM: 3.33 μM solution of test compound, percentage increase of baseline TMEM16A current, FRT cells stably expressing human TMEM16A, intracellular calcium at EC20, +70 mV, read-out: % Potentiation @ 3.33 μM Avg; for EC50: calculated from cumulative concentration response curve, FRT-TMEM16A cells, whole-cell patch clamp (Qpatch)
Description: Automated Whole-Cell Patch Clamp Assay to Detect TMEM16A Activity in Recombinant Cells
Cell Culture and Preparation
Fisher rat thyroid (FRT) cells stably expressing human TMEM16A (TMEM16Aabc variant; Dr Luis Galietta, Insituto Giannina, Italy) were cultured in T-75 flasks in Hams F-12 media with Coon's modification (Sigma) supplemented with 10% (v/v) foetal bovine serum, penicillin-streptomycin (10,000 U/mL/10000 μg/mL), G-418 (750 μg/mL), L-glutamine (2 mM) and sodium bicarbonate solution (7.5% v/v). At ˜90% confluence cells were harvested for experiments by detachment with a 2:1 (v/v) mixture of Detachin (BMS Biotechnology) and 0.25% (w/v) trypsin-EDTA. Cells were diluted to a density of 3.5-4.5×10^6 cells/mL with media consisting of CHO-S-SFM II (Sigma), 25 mM HEPES (Sigma) and Soy bean trypsin inhibitor (Sigma).
Whole-Cell Patch Clamp Recording
FRT-TMEM16A cells were whole-cell patch clamped using an automated planar patch clamp system (Qpatch, Sophion). Briefly, once high resistance (GOhm) seals were established between the cells and the planar recording array the patch was ruptured using suction pulses to establish the whole-cell recording configuration of the patch clamp technique. The assay employed the following solutions (all reagents Sigma): • Intracellular solution (mM): N-methyl-D-glucamine 130, CaCl2 18.2, MgCl2 1, HEPES 10, EGTA 10, BAPTA 20, Mg-ATP 2, pH 7.25, 325mOsm with sucrose. • Extracellular solution (mM): N-methyl-D-glucamine 130, CaCl2 2, MgCl2 1, HEPES 10, pH 7.3, 320 mOsm with sucrose.
The intracellular solution buffers intracellular calcium at levels required to give ˜20% activation of the maximal TMEM16A mediated current (EC20 for calcium ions). Cells were voltage clamped at a holding potential of −70 mV and a combined voltage step (to +70 mV)/ramp (−90 my to +90 mV) was applied at 0.05 Hz. After a period of current stabilisation test compounds, solubilised in 100% (v/v) DMSO and subsequently diluted into extracellular solution, were applied to generate a cumulative concentration response curve. Each concentration of test compound was incubated for 5 minutes before addition of the next concentration. After the final concentration was tested a supramaximal concentration of either a known active positive modulator or the TMEM16A inhibitor, CaCCinhA01 (Del La Fuente et al, 2008) was added to define the upper and lower limits of the assay.
Compound activity was quantified by measuring the increase in current upon compound addition and expressing this as a percentage increase of baseline TMEM16A current level. Percentage increases in current were determined for each concentration and the data plotted as a function of concentration using either the Qpatch software or Graphpad Prism v6.05 providing the concentration which gave 50% of its maximal effect (EC50) and maximum efficacy (percentage of baseline increase).
In FIG. 1, IBL equals baseline current, I[#1] equals the peak current during test compound concentration 1 incubation period and so on.
Peak TMEM16A current at +70 mV was plotted as a function of time over the assay period. Baseline current (IBL) was measured after a period of stabilisation. The increase in current for each compound addition was determined by taking the peak current during the incubation period and subtracting the current from the previous recording period and then expressing this as a percentage of the baseline current. For test compound concentration 1 in FIG. 1 this is:
For each additional concentration tested the increase in current was determined by subtracting the current from the previous incubation period and normalising the baseline value—for test concentration 2 in FIG. 1 this is:
The values for each test concentration were plotted as a cumulative function of concentration e.g. for test concentration two this would be the sum of the peak changes measured during concentration one plus concentration two.

Row | SMILES | activation at 3.33 µM | EC50
1 | CC(C)(C)NC(=O)c1ccc(NC(=O)Cc2cc(Cl)ccc2O)s1 [Example 1, N-tert-Butyl-5-[[2-(5-chloro-2-hydroxy-phenyl)acetyl]amino]thiophene-2-carboxamide] | 107% | 42 nM
2 | CC(C)(C)NC(=O)c1csc(NC(=O)Cc2cc(Cl)ccc2O)c1 [Example 1.1, N-tert-Butyl-5-[[2-(5-chloro-2-hydroxy-phenyl)acetyl]amino]thiophene-3-carboxamide] | 184% | 440 nM
3 | CC(C)(C)C(=O)Nc1ccnc(C(=O)NCc2cc(Cl)ccc2O)c1 [Example 3, N-[(5-Chloro-2-hydroxy-phenyl)methyl]-4-(2,2-dimethylpropanoylamino)pyridine-2-carboxamide] | 81.3% | 
4 | CC(C)(C)C(=O)Nc1cccc(NC(=O)Cc2cc(Cl)ccc2O)c1 [Example 6, N-[3-[[2-(5-Chloro-2-hydroxy-phenyl)acetyl]amino]phenyl]-2,2-dimethyl-propanamide] | 68.1% | 992 nM
5 | CC(C)(C)C(=O)Nc1cc(NC(=O)Cc2cc(Cl)ccc2O)ccn1 [Example 7, N-[4-[[2-(5-Chloro-2-hydroxy-phenyl)acetyl]amino]-2-pyridyl]-2,2-dimethyl-propanamide] | 156% | 615 nM
6 | CC(C)(CO)c1cc(F)c(CC(=O)Nc2ccc(C(=O)NC3(C(F)(F)F)CC3)s2)cc1O [Example 9, 5-[[2-[2-Fluoro-5-hydroxy-4-(2-hydroxy-1,1-dimethyl-ethyl)phenyl]acetyl]amino]-N-[1-(trifluoromethyl)cyclopropyl]thiophene-2-carboxamide] | 134% | 98 nM

The remaining lines, values ahead:

Row | activation at 3.33 µM | EC50 | SMILES
7 | 237% | 400 nM | CC(C)(C)NC(=O)c1cc(NC(=O)Cc2cc(Cl)ccc2O)cs1 [Example 1.2, N-tert-Butyl-4-[[2-(5-chloro-2-hydroxy-phenyl)acetyl]amino]thiophene-2-carboxamide]
8 | 127% |  | CC(C)(C)C(=O)Nc1cccc(C(=O)NCc2cc(Cl)ccc2O)c1 [Example 2, N-[(5-Chloro-2-hydroxy-phenyl)methyl]-3-(2,2-dimethylpropanoylamino)benzamide]
9 | 35.2% |  | CC(C)(C)NC(=O)c1cc(C(=O)NCc2ccccc2O)ccn1 [Example 4, N2-tert-Butyl-N4-[(2-hydroxyphenyl)methyl]pyridine-2,4-dicarboxamide]
10 | 41.2% | 2910 nM | CC(C)(C)NC(=O)c1cccc(C(=O)NCc2ccccc2O)c1 [Example 5, N1-tert-Butyl-N3-[(2-hydroxyphenyl)methyl]benzene-1,3-dicarboxamide]
11 | 120% | 1110 nM | O=C(Cc1cc(Cl)ccc1O)Nc1ccnc(NC(=O)C2CCCCC2)c1 [Example 7.1, N-[4-[[2-(5-Chloro-2-hydroxy-phenyl)acetyl]amino]-2-pyridyl]cyclohexane carboxamide]
12 | 134% | 85 nM | CC(C)(C#N)NC(=O)c1ccc(NC(=O)Cc2cc(O)c(C(C)(C)C)cc2F)s1 [Example 8, 5-[[2-(4-tert-Butyl-2-fluoro-5-hydroxy-phenyl)acetyl]amino]-N-(1-cyano-1-methyl-ethyl)thiophene-2-carboxamide]
